From US11299447B2, “Method for isolating a carboxylic acid from an aqueous solution” (PURAC BIOCHEM BV, priority 2011, dated 2022)
Blank lines part the entries; values can stand above or below the molecule they belong to.

What was measured:
Assay type in all cases: physicochemical
[1] = Solvent solubility in aqueous MgCl2 solution (gas chromatography of aqueous phase)
Procedure: Hereafter, the stirring was stopped, the phases were allowed to separate and a sample was taken from the aqueous bottom phase. The concentration of solvent in this sample was determined by gas chromatography.

[2] = Extraction of different types of polycarboxylic acids; conditions: for DBE: distribution ratio in back extraction; for DFE: distribution ratio in forward extraction, feed 15 wt. % MgCl2
Description: These tables also give the concentration ratio, which is the ratio between the acid concentration in the product and the acid concentration in the feed.

[3] = Stability of extraction solvent in contact with 2-hydroxy butyric acid feed solution (gas chromatography); conditions: 60° C.
Procedure: This experiment was conducted to compare the stability of two solvents, MIBK and Isoamyl alcohol in contact with the 2-hydroxy butyric acid feed solution prepared by adding 340 g of crystalline hydroxy butyric acid to 720 g water and mixing to complete dissolution. The thus prepared feed solution comprised 32 wt % of hydroxy butyric acid.
For each solvent a closed glass reactor was filled with 20 g of solvent and 20 g of the hydroxy butyric acid feed solution, put in an oven to maintain a temperature of 60° C. and shaken continuously. After 3 hours, 24 hours (1 day) and 168 hours (1 week) the shaking was stopped for 1 hour to allow the phases to settle, a sample was taken from the solvent top layer, and the composition of the solvent top layer analyzed by gas chromatography.

[4] = Lactic acid distribution ratio MIBK/aqueous MgCl2 solution; conditions: initial lactic acid 20 wt %
Description: Forward extraction and back extraction as used in the method of the invention are based on the difference in solubility of the carboxylic acid in water and the organic solvent at different temperatures. The solubility of a compound in one solvent relative to another solvent can be expressed in terms of the distribution ratio (DR). This ratio gives an indication how a compound will be distributed over the aqueous phase (e.g. the aqueous mixture) and the organic phase (e.g. the organic liquid) in a two-phase system at equilibrium. The distribution ratio may be defined as the ratio of the carboxylic acid concentration dissolved in the organic phase ([carboxylic acid]organic) over the concentration of the carboxylic acid dissolved in water ([carboxylic acid]water), provided that the two phases are in equilibrium with each other: DR=[carboxylic acid]organic/[carboxylic acid]water (1)
The resulting two phase system was stirred at 20° C. or 60° C. for 30 minutes with sufficient speed to ensure that both phases are well dispersed. Hereafter, the stirring is stopped, the phases were allowed to separate and samples were taken from both phases. The concentration of lactic acid (wt %) in these samples was determined by potentiometric titration. Hereafter the distribution ratio was calculated as the ratio of the lactic acid concentration (wt %) in the MIBK organic solvent phase divided by the lactic acid concentration (wt %) in the aqueous phase.

[5] = Table 2.2, MgCl2 0 wt %, 20° C.
[6] = Table 2.2, MgCl2 15 wt %, 20° C.
[7] = Table 2.2, MgCl2 30 wt %, 20° C.

Solvent solubility [1, 5]: 1.0 wt % | Solvent solubility [1, 6]: 0.4 wt % | Solvent solubility [1, 7]: 0.7 wt %
SMILES: CC(C)OC(C)C [Diisopropyl ether, reference compound]

DFE/DBE [2]: 7.29 | DBE [2]: 0.24 | DFE [2]: 1.75
SMILES: O=C(O)/C=C/C(=O)O [Fumaric acid, fumaric acid]

Solvent solubility [1, 5]: 2.8 wt % | Solvent solubility [1, 6]: 1.5 wt % | Solvent solubility [1, 7]: 0.6 wt % | isoamylhydroxybutyrate formed in solvent layer ([3]; 20 g solvent + 20 g 32 wt % hydroxy butyric acid feed, after 3 hours): 14.3 area % | isoamylhydroxybutyrate concentration in solvent layer ([3]; after 24 hours): 21.5 area % | isoamylhydroxybutyrate concentration in solvent layer ([3]; after 168 hours): 21.5 area %
SMILES: CC(C)CCO [Isoamyl alcohol, reference compound]

SMILES: C=C(CC(=O)O)C(=O)O [Itaconic acid, itaconic acid]
DFE/DBE [2]: 2.64 | DBE [2]: 1.07 | DFE [2]: 2.83

MIBK solubility ([1]; MgCl2 0 wt %, 20° C.): 1.8 wt % | MIBK solubility ([1]; MgCl2 0 wt %, 60° C.): 1.4 wt % | MIBK solubility ([1]; MgCl2 15 wt %, 20° C.): 0.48 wt % | MIBK solubility ([1]; MgCl2 15 wt %, 60° C.): 0.20 wt % | MIBK solubility ([1]; MgCl2 30 wt %, 20° C.): 0.17 wt % | MIBK solubility ([1]; MgCl2 30 wt %, 60° C.): 0.11 wt % | Solvent solubility [1, 5]: 1.8 wt % | Solvent solubility [1, 6]: 0.5 wt % | Solvent solubility [1, 7]: 0.1 wt %
SMILES: CC(=O)CC(C)C [MIBK, methyl-isobutylketone]
changes in the purity of the solvent ([3]; 20 g solvent + 20 g 32 wt % hydroxy butyric acid feed, after 168 hours): no changes in the purity of the MIBK could be detected

Lactic acid distribution ratio ([4]; MgCl2 0 wt %, 20° C.): 0.16 wt %/wt % | Lactic acid distribution ratio ([4]; MgCl2 0 wt %, 60° C.): 0.19 wt %/wt % | Lactic acid distribution ratio ([4]; MgCl2 10.5 wt %, 20° C.): 0.33 wt %/wt % | Lactic acid distribution ratio ([4]; MgCl2 10.5 wt %, 60° C.): 0.37 wt %/wt % | Lactic acid distribution ratio ([4]; MgCl2 16.0 wt %, 20° C.): 0.49 wt %/wt % | Lactic acid distribution ratio ([4]; MgCl2 16.0 wt %, 60° C.): 0.56 wt %/wt %
SMILES: CC(O)C(=O)O (stereo not shown) [lactic acid]
